Source: patent US12239645B2, “Targeted dosing for the treatment of complement mediated disorders” (Achillion Pharmaceuticals, Inc., priority 2018, dated 2025)
Like-named read-outs stand apart in the source and are kept apart here.

Experiment: Multiple ascending dose (MAD) study: multiple-dose pharmacokinetics
Type: in vivo, human
Conditions: for concentration at 144 h: Day 7, 0 hr post-dose (144 h); for concentration at 144 h / concentration at 324 h / concentration at 120 h / concentration at 132 h / concentration at 156 h / concentration at 168 h / concentration at 192 h / concentration at 288 h / concentration at 300 h / concentration at 312 h: read-out: Pre-dose (trough) plasma concentration, Mean; for concentration at 324 h: Day 14, 12 hr post-dose (324 h); for concentration at 120 h: Day 6, 0 hr post-dose (120 h); for concentration at 132 h: Day 6, 12 hr post-dose (132 h); for concentration at 156 h: Day 7, 12 hr post-dose (156 h); for concentration at 168 h: Day 8, 0 hr post-dose (168 h); for concentration at 192 h: Day 9, 0 hr post-dose (192 h); for concentration at 288 h: Day 13, 0 hr post-dose (288 h); for concentration at 300 h: Day 13, 12 hr post-dose (300 h); for concentration at 312 h: Day 14, 0 hr post-dose (312 h)
Description: A multiple ascending dose (MAD) study of Compound 1 with two additional single-dose cohorts was also completed. […] Secondary objectives included evaluation of the pharmacokinetic (PK) profile and the relationship between Compound 1 PK and pharmacodynamic (PD) characteristics, that is, the inhibition of complement alternative pathway (AP) activity (PK/PD). In the MAD study, multiple-dose pharmacokinetics and pharmacodynamics of Compound 1 were evaluated in four dose groups administered Compound 1 (40, 80, 120 and 200 mg BID) in the fasted state for 14-days (Table 3). Eight subjects received active drug in each group; eight subjects received placebo in the first dose group (40 mg) and two subjects received placebo in each of the other three dose groups. Two additional cohorts were administered Compound 1 at single doses of 240 mg (fasted subjects) and 120 mg (fed subjects) (Table 3). The two single-dose cohorts each comprised six subjects receiving active drug and two subjects receiving placebo. Plasma and serum samples for PK and PD assessment were collected on selected days prior to dosing (at local troughs), and on days 1, 7, and 14 at 0.5-hour to 2-hour intervals for more detailed assessment.

[1] = human, plasma, oral, 80 mg, 80 mg BID
[2] = human, plasma, oral, 120 mg, 120 mg BID
[3] = human, plasma, oral, 200 mg, 200 mg BID

`CC(=O)c1nn(CC(=O)N2[C@H](C(=O)Nc3nc(Br)ccc3C)C[C@@]3(C)C[C@@H]23)c2ccc(-c3cnc(C)nc3)cc12` [Compound 1, (1R,3S,5R)-2-(2-(3-acetyl-5-(2-methylpyrimidin-5-yl)-1H-indazol-1-yl)acetyl)-N-(6-bromo-3-methylpyridin-2-yl)-5-methyl-2-azabicyclo[3.1.0]hexane-3-carboxamide] showed a concentration at 144 h [1] of 0.0691 µg/mL, a concentration at 324 h [1] of 0.0425 µg/mL and a concentration at 12 hr (human, plasma, oral, 80 mg, 80 mg BID, all 12 hr (evening) troughs, read-out: Mean C(12), steady-state trough) of 0.0459 µg/mL. It also gave a concentration at 12 h (human, plasma, oral, 120 mg BID, all 12 hr (evening) troughs, read-out: Mean C(12), steady-state trough) of ~0.08 µg/mL, a Tmax (human, plasma, oral, 120 mg, 120 mg BID × 14 Days, Day 1) of 2 h and an AUC(0-t) (human, plasma, oral, 120 mg, 120 mg BID × 14 Days, Day 1, read-out: AUC(0-12), Mean) of 1.2 µg·h/mL. It also gave a Cmax (human, plasma, oral, 120 mg, 120 mg BID × 14 Days, Day 1, read-out: Cmax, Mean) of 0.353 µg/mL, a Tmax (human, plasma, oral, 120 mg, 120 mg BID × 14 Days, Day 7) of 1.75 h and an AUC(0-t) (human, plasma, oral, 120 mg, 120 mg BID × 14 Days, Day 7, read-out: AUC(0-12), Mean) of 3.88 µg·h/mL. It also gave an AUC(0-t) (human, plasma, oral, 120 mg, 120 mg BID × 14 Days, Day 7, read-out: AUC(0-24), Mean) of 7.75 µg·h/mL, a Cmax (human, plasma, oral, 120 mg, 120 mg BID × 14 Days, Day 7, read-out: Cmax, Mean) of 0.885 µg/mL and a Tmax (human, plasma, oral, 120 mg, 120 mg BID × 14 Days, Day 14) of 2.5 h. For the same molecule, the AUC(0-t) (human, plasma, oral, 120 mg, 120 mg BID × 14 Days, Day 14, read-out: AUC(0-12), Mean) was 3.99 µg·h/mL, the AUC(0-t) (human, plasma, oral, 120 mg, 120 mg BID × 14 Days, Day 14, read-out: AUC(0-24), Mean) was 7.99 µg·h/mL and the Cmax (human, plasma, oral, 120 mg, 120 mg BID × 14 Days, Day 14, read-out: Cmax, Mean) was 0.887 µg/mL. It also gave a concentration at 120 h [2] of 0.165 µg/mL, a concentration at 132 h [2] of 0.0906 µg/mL and a concentration at 144 h [2] of 0.125 µg/mL. For the same molecule, the concentration at 156 h [2] was 0.0672 µg/mL, the concentration at 168 h [2] was 0.164 µg/mL and the concentration at 192 h [2] was 0.156 µg/mL. It also gave a concentration at 288 h [2] of 0.136 µg/mL, a concentration at 300 h [2] of 0.088 µg/mL and a concentration at 312 h [2] of 0.173 µg/mL. For the same molecule, the concentration at 324 h [2] was 0.0766 µg/mL, the Cmax (human, plasma, oral, 120 mg, 120 mg BID, read-out: Cmax) was < 1 µg/mL and the Tmax (human, plasma, oral, 200 mg, 200 mg BID × 14 Days, Day 1) was 1.63 h. It also gave an AUC(0-t) (human, plasma, oral, 200 mg, 200 mg BID × 14 Days, Day 1, read-out: AUC(0-12), Mean) of 1.82 µg·h/mL, a Cmax (human, plasma, oral, 200 mg, 200 mg BID × 14 Days, Day 1, read-out: Cmax, Mean) of 0.44 µg/mL and a Tmax (human, plasma, oral, 200 mg, 200 mg BID × 14 Days, Day 7) of 2.06 h. The AUC(0-t) (human, plasma, oral, 200 mg, 200 mg BID × 14 Days, Day 7, read-out: AUC(0-12), Mean) was 9.35 µg·h/mL, the AUC(0-t) (human, plasma, oral, 200 mg, 200 mg BID × 14 Days, Day 7, read-out: AUC(0-24), Mean) was 18.7 µg·h/mL and the Cmax (human, plasma, oral, 200 mg, 200 mg BID × 14 Days, Day 7, read-out: Cmax, Mean) was 1.87 µg/mL. The Tmax (human, plasma, oral, 200 mg, 200 mg BID × 14 Days, Day 14) was 1.81 h, the AUC(0-t) (human, plasma, oral, 200 mg, 200 mg BID × 14 Days, Day 14, read-out: AUC(0-12), Mean) was 8.24 µg·h/mL and the AUC(0-t) (human, plasma, oral, 200 mg, 200 mg BID × 14 Days, Day 14, read-out: AUC(0-24), Mean) was 16.5 µg·h/mL. The Cmax (human, plasma, oral, 200 mg, 200 mg BID × 14 Days, Day 14, read-out: Cmax, Mean) was 1.63 µg/mL, the concentration at 120 h [3] was 0.431 µg/mL and the concentration at 132 h [3] was 0.241 µg/mL. The concentration at 144 h [3] was 0.385 µg/mL, the concentration at 156 h [3] was 0.241 µg/mL and the concentration at 168 h [3] was 0.381 µg/mL. For the same molecule, the concentration at 192 h [3] was 0.377 µg/mL, the concentration at 288 h [3] was 0.376 µg/mL and the concentration at 300 h [3] was 0.272 µg/mL. The concentration at 312 h [3] was 0.415 µg/mL, the concentration at 324 h [3] was 0.235 µg/mL and the concentration at 12 hr (human, plasma, oral, 200 mg, 200 mg BID, all 12 hr (evening) troughs, read-out: Mean C(12), steady-state trough) was 0.247 µg/mL. For the same molecule, the Cmax (human, plasma, oral, 200 mg, 200 mg BID, read-out: Cmax) was < 2 µg/mL, the C0 at 0 h (human, plasma, oral, 40 mg BID, all 0 hr (morning) troughs, read-out: Mean C(0), steady-state trough) was 0.0234 µg/mL and the C0 at 0 hr (human, plasma, oral, 80 mg BID, all 0 hr (morning) troughs, read-out: Mean C(0), steady-state trough) was 0.0837 µg/mL. For the same molecule, the C0 at 0 hr (human, plasma, oral, 120 mg BID, all 0 hr (morning) troughs, read-out: Mean C(0), steady-state trough) was 0.153 µg/mL, the C0 at 0 hr (human, plasma, oral, 200 mg BID, all 0 hr (morning) troughs, read-out: Mean C(0), steady-state trough) was 0.392 µg/mL and the diurnal metabolic pattern (humans, BID dosing, C(0) morning vs C(12) evening) was “exhibits a diurnal metabolic pattern”.
